Test results taken from US8187373B2, “Printing inks for offset and/or high printing containing NIR absorbers and NIR absorbers soluble in offset and/or high printing inks” (BASF SE, priority 2004, dated 2012).

Tests used:
[1] = Testing of the NIR absorbers in yellow heatset offset printing ink, printed on paper; format: physicochemical; details: 0.5% by weight in commercial yellow heatset offset printing ink
Method: In each case 0.5% by weight of the absorber A1 or A2 not according to the invention was added to a commercial yellow heatset offset printing ink, and the mixtures were thoroughly stirred.
Samples of the inks obtained were printed on paper.
The procedure was as in the comparative example, except that in each case 0.5% by weight of the novel NIR absorber B2 or B4 was used.

[2] = Extinction of a thin layer of printing varnish containing NIR absorber (absorption spectrum 400-1000 nm); format: physicochemical; details: 1.0% by weight NIR absorber
Method: Two conventional varnishes for the preparation of offset printing inks were used for the test. Varnishes are prepared formulations comprising binder and solvent, but as yet without colorant. In this way, it is possible to study the behavior of the NIR absorber also spectroscopically without interference by the colorant.
A varnish for the preparation of heatset inks comprising about 45% by weight of a low-aromatics mineral oil (boiling range from 240 to 270° C.), about 45% by weight of a rosin-modified phenol resin and about 10% by weight of an alkyd resin was used, as well as a varnish for the preparation of sheet-fed offset inks comprising about 45% by weight of a low-aromatics mineral oil (boiling range from 260 to 290° C.), about 45% by weight of a rosin-modified phenol resin and about 10% by weight of linseed oil.
Furthermore, a thin layer of above liquids was produced and was investigated spectroscopically. For this purpose, the above liquids were diluted 1:5 with dichloromethane, and the resulting solution was applied to a microscope slide by means of a knife coater so that, after evaporation of the dichloromethane, a layer of about 2 μm thick remained. An absorption spectrum (400-1000 nm) of this layer was then recorded after 2 hours.

dissolution of NIR absorber in the offset ink [1] | extinction E at 810 nm [2] | Compound
did not dissolve | < 0.01 | CCN1/C(=C/C=C2\CCC(/C=C/C3=[N+](CC)c4ccccc4C3(C)C)=C2Cl)C(C)(C)c2ccccc21 [Compound A2]
dissolved completely | 0.83 | CCN1/C(=C/C=C2\CCC(/C=C/C3=[N+](CC)c4ccccc4C3(C)C)=C2Cl)C(C)(C)c2ccccc21 [Compound B4]
